One assay deals with ROCK1 (Homo sapiens (Human), UniProt Q13464). Kind of assay: ROCK1 kinase inhibition assay (peptide phosphorylation, LabChip 3000). The class given is biochemical. The settings on record: 5 μM ATP, 3 nM ROCK1, 3 hours at 25° C. The procedure: (§1) The peptide is >98% purity by Capillary Electrophoresis. The peptide is phosphorylated by the protein kinase ROCK1 or ROCK2. The ROCK1 or ROCK2 enzyme, substrate, and cofactors (ATP and Mg^2+) are combined in a well of a microtiter plate and incubated for 3 hours at 25° C. At the end of the incubation, the reaction is quenched by the addition of an EDTA-containing buffer. The substrate and product are separated and quantified electrophoretically using the microfluidic-based LABCHIP® 3000 Drug Discovery System from Caliper Life Sciences (Hopkinton, Mass.).
(§2) The components of the assay mixture are:
(§3) 10 μM Sodium Orthovanadate
(§4) 10 μM Beta-Glycerophosphate
(§5) 5 μM ATP (for ROCK1) or 7 μM ATP (for ROCK2)
(§6) 3 nM ROCK1 or 2.5 nM ROCK2 enzyme
Substrate and product peptides present in each sample are separated electrophoretically using the LABCHIP® 3000 capillary electrophoresis instrument. […] Change in the relative fluorescence intensity of the substrate and product peaks is the parameter measured reflecting enzyme activity. Capillary electrophoregramms (RDA acquisition files) are analyzed using HTS Well Analyzer software (Caliper Life Sciences, Hopkinton, Mass.). The kinase activity in each sample is determined as the product to sum ratio (PSR): P/(S+P), where P is the peak height of the product peptide and S is the peak height of the substrate peptide. For each compound, enzyme activity is measured at various concentrations (12 concentrations of compound spaced by 3× dilution intervals). […] Percent inhibition (Pinh) is determined using the following equation: Pinh=(PSR0%−PSRinh)/(PSR0%−PSR100%)*100 where PSRinh is the product sum ratio in the presence of inhibitor, PSR0% is the average product sum ratio in the absence of inhibitor, and PSR100% is the average product sum ratio in 100%-inhibition control samples. The IC50 values of inhibitors are determined by fitting the inhibition curves (Pinh versus inhibitor concentration) by 4 parameter sigmoidal dose-response model using XLfit 4 software (IBDS).

The next assay concerns the target ROCK2 (Homo sapiens (Human), UniProt O75116). The assay is described as follows: ROCK2 kinase inhibition assay (peptide phosphorylation, LabChip 3000). To be noted: 7 μM ATP, 2.5 nM ROCK2, 3 hours at 25° C. The class given is biochemical. The procedure: as §1, §2, §3, §4, §5, §6
Substrate and product peptides present in each sample are separated electrophoretically using the LABCHIP® 3000 capillary electrophoresis instrument. […] Change in the relative fluorescence intensity of the substrate and product peaks is the parameter measured reflecting enzyme activity. Capillary electrophoregramms (RDA acquisition files) are analyzed using HTS Well Analyzer software (Caliper Life Sciences, Hopkinton, Mass.). The kinase activity in each sample is determined as the product to sum ratio (PSR): P/(S+P), where P is the peak height of the product peptide and S is the peak height of the substrate peptide. For each compound, enzyme activity is measured at various concentrations (12 concentrations of compound spaced by 3× dilution intervals). Negative control samples (0%-inhibition in the absence of inhibitor) and positive control samples (100%-inhibition in the presence of 20 mM EDTA) are assembled in replicates of four and are used to calculate %-inhibition values for each compound at each concentration. Percent inhibition (Pinh) is determined using the following equation: Pinh=(PSR0%−PSRinh)/(PSR0%−PSR100%)*100 where PSRinh is the product sum ratio in the presence of inhibitor, PSR0% is the average product sum ratio in the absence of inhibitor, and PSR100% is the average product sum ratio in 100%-inhibition control samples. The IC50 values of inhibitors are determined by fitting the inhibition curves (Pinh versus inhibitor concentration) by 4 parameter sigmoidal dose-response model using XLfit 4 software (IBDS).

The test system of another assay is K562 cells. Kind of assay: Cell viability assay (CellTiter-Blue), K562. Format: cell-based. To be noted: Homo sapiens; K562 (does not express ITD-FLT3), 72 hours treatment. The procedure:
(§7) Cell viability in the presence of varying concentrations of the above listed compounds at different time points was used to assess cytotoxicity and the effect of the compounds on cell proliferation.
Cell viability was measured by the […]-BLUE® cell viability assay from Promega (Madison, Wis.). This procedure measures the conversion of the indicator dye (resazurin) to resorufin, an indicator of cell viability. Following treatment, growth media was removed and cells were incubated with 20 μl of […]-BLUE® Reagent and growth media for 1-4 hours at 37° C. Fluorescence values were measured at 535/590 nm using a Beckman-Coulter DTX-880 microplate reader.
Cells were grown to 70% confluency, trypsinized, counted, and seeded in 96 well flat-bottom plates at a final concentration of 2.5×10^3-5×10^3 cells/well (Day 0). Cells were allowed to incubate in growth media for 24 hours to allow for maximum adhesion. Treatment with the test agents or standard agents began on Day 1 and continued for 72 hours. At the 72-hour time point, treatment containing media was removed. Viable cell numbers were quantified by the […]-BLUE® cell viability assay as described above. Experiments were repeated at least twice with the same concentrations to determine growth inhibitory activity. Results from these studies were used to calculate an IC50 value (concentration of drug that inhibits cell growth by 50 percent of control) for each compound.
(§8) For single agent and combination studies, data from each experiment was collected and expressed as % Cell Growth using the following calculation: % Cell Growth=(ftest/fvehicle)×100 Where ftest is the fluorescence of the tested sample, and fvehicle is the fluorescence of the vehicle in which the drug is dissolved. Dose response graphs and IC50 values were generated using Prism 4 software (GraphPad) using the following equation: Y=(Top−Bottom)/(1+10^((logIC50-X)[…])) Where X is the logarithm of the concentration and Y is the response. Y starts at the Bottom and goes to the Top with a sigmoid shape.
(§9) The experiments also evaluated the selectivity of the compounds for inhibiting growth of cancer cells carrying a mutation in the Flt3 gene. The MV411 cell line expresses the mutant allele of Flt3 with internal tandem duplications (ITD) of the gene. See Quentmeier et al., “FLT3 Mutations in Acute Myeloid Leukemia Cell Lines,” Leukemia 17(1), 2003, 120-124. […] See Grafone et al., “Monitoring of FLT3 Phosphorylation Status and Its Response to Drugs By Flow Cytometry in AML Blast Cells,” Hematol Oncol. 26(3), 2008, 159-166.

The test system of another assay is MV411 cells. The assay is described as follows: Cell viability assay (CellTiter-Blue), MV411. The settings on record: for FLT3-ITD+ Selectivity (K562/MV411): ratio of K562 to MV411 IC50; for IC50: Homo sapiens, MV4-11, MV411 (ITD-FLT3+), 72 hours treatment. The class given is cell-based. The procedure:
as §7
This procedure measures the conversion of the indicator dye (resazurin) to resorufin, an indicator of cell viability. […] Fluorescence values were measured at 535/590 nm using a Beckman-Coulter DTX-880 microplate reader.
Cells were grown to 70% confluency, trypsinized, counted, and seeded in 96 well flat-bottom plates at a final concentration of 2.5×10^3-5×10^3 cells/well (Day 0). Cells were allowed to incubate in growth media for 24 hours to allow for maximum adhesion. Treatment with the test agents or standard agents began on Day 1 and continued for 72 hours. At the 72-hour time point, treatment containing media was removed. […] Experiments were repeated at least twice with the same concentrations to determine growth inhibitory activity.
as §8, §9
(Resazurin is reduced to fluorescent resorufin, in cell work by metabolically active cells.)

Sequence of ROCK1 (Q13464 whole entry): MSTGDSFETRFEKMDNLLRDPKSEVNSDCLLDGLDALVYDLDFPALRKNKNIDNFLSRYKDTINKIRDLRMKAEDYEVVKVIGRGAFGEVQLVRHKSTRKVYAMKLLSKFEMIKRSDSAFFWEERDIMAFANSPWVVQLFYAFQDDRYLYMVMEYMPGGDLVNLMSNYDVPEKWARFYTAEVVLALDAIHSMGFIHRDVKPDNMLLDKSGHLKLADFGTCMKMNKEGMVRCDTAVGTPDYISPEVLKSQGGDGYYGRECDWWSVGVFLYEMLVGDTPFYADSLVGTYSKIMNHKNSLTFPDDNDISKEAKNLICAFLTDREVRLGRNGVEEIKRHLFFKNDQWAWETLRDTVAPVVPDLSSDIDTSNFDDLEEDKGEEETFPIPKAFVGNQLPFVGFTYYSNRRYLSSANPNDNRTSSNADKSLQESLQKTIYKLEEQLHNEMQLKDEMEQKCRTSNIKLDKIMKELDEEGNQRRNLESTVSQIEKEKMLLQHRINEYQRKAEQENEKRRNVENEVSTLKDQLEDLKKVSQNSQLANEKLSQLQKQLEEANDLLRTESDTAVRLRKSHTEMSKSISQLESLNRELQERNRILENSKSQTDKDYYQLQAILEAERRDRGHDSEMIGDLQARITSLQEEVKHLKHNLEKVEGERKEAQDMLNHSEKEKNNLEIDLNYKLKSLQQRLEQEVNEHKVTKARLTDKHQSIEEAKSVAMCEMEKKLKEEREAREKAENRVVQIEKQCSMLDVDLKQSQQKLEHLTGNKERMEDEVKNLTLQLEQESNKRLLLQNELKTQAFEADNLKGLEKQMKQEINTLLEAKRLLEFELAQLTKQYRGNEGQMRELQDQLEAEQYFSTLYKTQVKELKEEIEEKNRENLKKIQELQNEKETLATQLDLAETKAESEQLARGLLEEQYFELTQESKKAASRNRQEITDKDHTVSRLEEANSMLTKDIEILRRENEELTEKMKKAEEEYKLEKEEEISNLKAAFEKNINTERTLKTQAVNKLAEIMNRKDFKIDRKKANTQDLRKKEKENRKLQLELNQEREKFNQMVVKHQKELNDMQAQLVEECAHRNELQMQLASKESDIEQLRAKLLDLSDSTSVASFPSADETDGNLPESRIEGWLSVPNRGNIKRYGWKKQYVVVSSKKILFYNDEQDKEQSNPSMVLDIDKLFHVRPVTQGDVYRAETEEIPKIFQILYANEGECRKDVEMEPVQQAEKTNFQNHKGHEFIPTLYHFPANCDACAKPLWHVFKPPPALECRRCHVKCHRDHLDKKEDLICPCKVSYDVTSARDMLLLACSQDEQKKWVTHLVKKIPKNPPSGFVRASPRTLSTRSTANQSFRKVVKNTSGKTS
Sequence of ROCK2 (O75116 whole entry): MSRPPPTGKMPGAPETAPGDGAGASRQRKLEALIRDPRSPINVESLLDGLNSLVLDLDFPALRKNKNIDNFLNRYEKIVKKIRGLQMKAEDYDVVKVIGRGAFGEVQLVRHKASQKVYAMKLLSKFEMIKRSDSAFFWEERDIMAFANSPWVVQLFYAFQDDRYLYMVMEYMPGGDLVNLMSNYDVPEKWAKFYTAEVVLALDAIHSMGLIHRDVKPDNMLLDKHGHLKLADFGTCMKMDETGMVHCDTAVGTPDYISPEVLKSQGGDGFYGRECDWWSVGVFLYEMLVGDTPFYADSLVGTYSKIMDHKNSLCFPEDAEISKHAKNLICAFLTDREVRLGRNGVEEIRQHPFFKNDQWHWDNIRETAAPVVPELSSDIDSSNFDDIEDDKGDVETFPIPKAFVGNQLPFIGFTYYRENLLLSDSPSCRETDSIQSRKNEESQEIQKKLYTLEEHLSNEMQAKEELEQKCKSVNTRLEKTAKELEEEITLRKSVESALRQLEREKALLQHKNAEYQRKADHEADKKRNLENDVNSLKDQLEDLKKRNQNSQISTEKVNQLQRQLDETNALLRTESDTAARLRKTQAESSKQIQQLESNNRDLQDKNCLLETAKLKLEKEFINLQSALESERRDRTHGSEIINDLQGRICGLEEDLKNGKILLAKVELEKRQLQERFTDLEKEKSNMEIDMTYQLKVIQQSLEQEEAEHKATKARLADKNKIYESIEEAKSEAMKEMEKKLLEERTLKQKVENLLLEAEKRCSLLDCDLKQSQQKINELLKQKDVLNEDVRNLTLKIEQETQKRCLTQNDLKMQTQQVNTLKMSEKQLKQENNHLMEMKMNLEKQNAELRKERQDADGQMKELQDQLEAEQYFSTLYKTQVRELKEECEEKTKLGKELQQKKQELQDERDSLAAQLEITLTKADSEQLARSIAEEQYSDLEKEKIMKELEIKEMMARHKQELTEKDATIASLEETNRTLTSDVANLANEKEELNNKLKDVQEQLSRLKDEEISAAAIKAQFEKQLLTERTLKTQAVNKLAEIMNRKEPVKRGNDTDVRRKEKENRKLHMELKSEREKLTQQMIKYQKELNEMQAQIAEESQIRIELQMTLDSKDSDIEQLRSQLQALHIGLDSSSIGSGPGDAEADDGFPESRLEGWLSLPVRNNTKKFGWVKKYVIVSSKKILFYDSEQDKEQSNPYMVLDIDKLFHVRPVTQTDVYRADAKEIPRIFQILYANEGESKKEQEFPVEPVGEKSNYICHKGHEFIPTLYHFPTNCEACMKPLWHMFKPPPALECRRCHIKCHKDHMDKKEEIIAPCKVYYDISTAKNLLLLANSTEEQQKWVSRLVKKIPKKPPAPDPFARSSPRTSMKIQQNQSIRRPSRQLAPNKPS

As for `O=C(N[C@H](CO)c1cccc(F)c1)c1cc(-c2ccncc2)[nH]n1` [Compound 1], the half-inhibitory concentration (IC50) (usually the concentration needed to halve the response being measured) against ROCK1 is 207 nM; on ROCK2, 27.6 nM; in the assay with K562 cells it was more than 100000 nM. Further, the “FLT3-ITD+ Selectivity (K562/MV411)” value with MV411 cells is reported as more than 1.
With `COc1cccc(CNC(=O)c2cc3ccc(-c4ccncc4)nc3s2)c1` [Compound 39], the IC50 on ROCK1 is 65.1 nM; against ROCK2, 17.4 nM; with K562 cells, more than 100000 nM; with MV411 cells it was 7100 nM. Besides, the “FLT3-ITD+ Selectivity (K562/MV411)” value with MV411 cells is reported as more than 14.
Consider `COc1cccc(CNC(=O)c2cc3ccc(-c4cn[nH]c4)nc3s2)c1` [Compound 40], for which the IC50 on ROCK1 was 164 nM; at ROCK2, 17 nM; in the assay with MV411 cells, 14800 nM. For the same compound, the “FLT3-ITD+ Selectivity (K562/MV411)” value in the assay on MV411 cells is reported as more than 7.
With `COc1cccc([C@@H](C)NC(=O)c2cc3ccc(-c4cn[nH]c4)nc3s2)c1` [Compound 58], the IC50 turned out to be 4.5 nM against ROCK2, 31000 nM with K562 cells and 1600 nM with MV411 cells. For the same compound, the “FLT3-ITD+ Selectivity (K562/MV411)” value in the assay with MV411 cells is on record as 19.
For `COc1cccc(CN(CCN(C)C)C(=O)c2cc3ccc(-c4cn[nH]c4)nc3s2)c1` [Compound 59], the IC50 at ROCK2 amounted to 20 nM; with K562 cells, 25000 nM; in the assay with MV411 cells it was 4500 nM. In the assay on MV411 cells, the “FLT3-ITD+ Selectivity (K562/MV411)” value is reported as 6.
For the compound `CC(C)NC(=O)c1cccc(CNC(=O)c2cc3ccc(-c4cn[nH]c4)nc3s2)c1` [Compound 60], the IC50 in the assay on K562 cells is 65000 nM; in the assay with MV411 cells it was 12900 nM. For the same compound, in the assay on MV411 cells, the “FLT3-ITD+ Selectivity (K562/MV411)” value turned out to be 5.
With `COc1cccc([C@@H](CO)NC(=O)c2cc3ccc(-c4cn[nH]c4)nc3s2)c1` [Compound 61], the IC50 against ROCK2 worked out at 7.1 nM; in the assay on K562 cells, 54000 nM; with MV411 cells, 8200 nM. In the assay with MV411 cells, the “FLT3-ITD+ Selectivity (K562/MV411)” value stood at 7.
`C[C@@H](NC(=O)c1cc(-c2ccncc2)n[nH]1)c1cccc(F)c1` [Compound 64] had a half-maximal inhibitory concentration (IC50) at ROCK2 of 29.2 nM.
Same read-out and setting: the same measure for `C[C@@H](NC(=O)c1cc(-c2ccncc2)n[nH]1)c1cccc(Cl)c1` [Compound 66]: 9.8 nM; for `O=C(N[C@H](CO)c1cccc(Cl)c1)c1cc(-c2ccncc2)n[nH]1` [Compound 67]: 10.1 nM.
Still for that read-out and setting: the figure for `O=C(N[C@H](CO)c1ccccc1)c1cc(-c2ccncc2)n[nH]1` [Compound 68] is 509 nM.

The values above are taken from patent US10807966B2, “Heterocyclic compounds as kinase inhibitors” (TRANSLATIONAL DRUG DEVELOPMENT, LLC, priority 2016, dated 2020).
